Test [1] has as its system T1, STING.
T1 construct: from tissue; host or cells: human whole blood from healthy donors
As to the kind of experiment: Human whole blood assay (HWBA), cGAMP-stimulated IFNα2α production. In kind it is cell-based. To be noted: human whole blood stimulated by cGAMP. On the procedure: For the detection of STING inhibition in physiological environment human whole blood was stimulated by the cyclic dinucleotide cGAMP. Pathway activity was monitored by measuring the IFNα2α production.
Assay method: Compounds were delivered as 10 mM DMSO solution and serial diluted and transferred to the 96-well Cell culture Plate (Corning #3595), prefilled with 20 μl OptiMEM (Gibco #11058-021) in each well, using an Echo acoustic dispenser. Typically, 8 concentrations were used with the highest concentration at 10 μM in the final assay volume followed by ^˜1:5 dilution steps. DMSO concentration was set to 0.1% in the final assay volume. The 96 well assay plate contained 9 test compounds, a reference compound and DMSO in control wells.
Collection of human whole blood from 3 or more healthy donors (male or female, no medication for 7 days, exception contraceptive and thyroxine) as Na-citrate blood (e.g. 3.8% in Monovettes from Sarstedt) is conducted in parallel. Whole blood was kept at room temperature for a maximum of 3 hours after collection until use in the assay.
160 μl of the whole blood samples were transferred to each well of the 96-well assay plates filled with compound/OptiMEM. All assay plates are prepared as duplicates with blood from different donors. Blood plates were kept at room temperature for 60 minutes and continuous shaking with 450 rpm, covered with the lid, but not sealed.
A 10× cGAMP assay solution was diluted from a 2 mM stock solution in 1×HBSS immediately before use at room temperature. 20 μl of the 10× cGAMP/HBSS were added to all compound and all high control wells, whereas HBSS only was added to all low control wells.
After covering assay plates with aera seals and the lid, blood plates were kept at room temperature for 30 minutes and continuous shaking with 450 rpm, followed by an overnight incubation of 22 h at 37° C. in the incubator, without shaking.
For the detection of IFNα-2α in human plasma, the biotinylated capture antibody (Antibody set IFNA2, Meso Scale Diagnostics #B21VH-3, including coating and capture antibody) was diluted 1:17.5 in Diluent 100 (Meso Scale Diagnostics #R50AA-4, according to the manufacturer. U-Plex MSD GOLD 96-well Small Spot Streptavidin SECTOR Plates (Meso Scale Diagnostics #L45SA-5) were coated with 25 μl diluted capture antibody. Coated plates were incubated for 60 min at room temperature under continuous shaking at 700 rpm. MSD IFNα-2α plates were washed three times with 150 μl wash buffer (1×HBSS, 0.05% Tween).
After blocking the plates with 100 μl block solution/well (1×HBSS with 0.2% Tween, 2% BSA) for 60 min at room temperature and continuous shaking at 700 rpm, plates were emptied as dry as possible by dumping just before continuing with the human plasma. Whole Blood assay plates were centrifuged at 1600 rpm for 10 minutes. 25 μl of supernatant was transferred with a pipetting robotics from each whole blood plate to the corresponding IFNα-2α plate. Plates were sealed with microplate seals and kept at room temperature again under continuous shaking at 700 rpm for two hours. Next MSD IFNα-2α plates were washed three times with 150 μl wash buffer (1×HBSS, 0.05% Tween), before adding 25 μl MSD SULFO-TAG IFNα-2α Antibody solution (1:100 diluted in Diluent 3 (Meso Scale Diagnostics #R50AP-2) to each well of the plates. Afterwards plates were sealed with microplate seals and kept at room temperature again under continuous shaking at 700 rpm for two hours. Finally, MSD IFNα-2α plates were washed three times with 150 μl wash buffer (1×HBSS, 0.05% Tween). 150 μl 2× Read buffer was added to each well and plates were immediately measured with the MSD Sector S600 Reader using the vendor barcode.
Data evaluation and calculation: For data evaluation and calculation, % control calculation of each well was based on the mean of high (cGAMP stimulated control) and mean of low (unstimulated control) controls by using the following formula: […]

For test [2], the system named is STING. The test can be described thus: IP10 production in human dermal microvascular endothelial cells (MVEC) after double-stranded DNA stimulation. The format is cell-based. To be noted: IP10 production after dsDNA stimulation; rounded average of multiple experiments; read-out: Inhibition of Human microvascular endothelial cells (IC50 nM). From the text:
Interferon gamma-induced protein 10 (IP-10) also known as C—X—C motif chemokine ligand 10 (CXCL10) is produced as one of the responses of the presence of double-stranded DNA in the cytoplasm and resulting STING activity. In some diseases, imbalanced STING activation can result to damage in the endothelium, for example in SAVI patients (Liu Yet al. Activated STING in a vascular and pulmonary syndrome. N Engl J Med. 2014 Aug. 7; 371(6):507-518. doi: 10.1056/NEJMoa1312625). To test the efficacy of the inventive STING inhibitors, experiments in human microvascular endothelial cells (HMVEC) are performed with the inventive compounds. Dermal HMVEC are available from Lonza, US. They are cultured in 96 well plates according to the manufacturer's instructions. Using typical protocols, the cells are serum starved and then treated with the compound for 1 hour. The cells are then treated with 400 ng/mL of dsDNA as a complex with Lipofectamine 3000 (from Thermo Fisher Scientific Inc., Waltham, MA, USA) and incubated for 6 hours. The supernatants are collected and assayed for IP10 production.
Detection of IP10 is done using the U-PLEX HUMAN IP-10 ASSAY from Meso Scale Diagnostics (1601 Research Boulevard, Rockville, Maryland 20850-3173, USA) according to manufacturer's protocols.

The results in this text go back to patent US20250333398A1, “MONOARYL AND HETARYL SUBSTITUTED INDAZOLES AND BENZIMIDAZOLES AS STING ANTAGONISTS AND THE USE THEREOF AS MEDICAMENT” (Boehringer Ingelheim International GmbH, priority 2024, published 2025).

By IC50 is commonly meant the concentration that inhibits the measured activity by half. For the molecule `CC[P@](C)(=O)c1ccc(-c2nc(-c3cccc4nn(-c5cc(C(F)(F)F)n(C)n5)cc34)c(C3CC3)n2C)c(OC(F)(F)F)c1` [Example 10, 4-(5-cyclopropyl-2-{4-[(S)-ethyl(methyl)phosphoryl]-2-(trifluoromethoxy)phenyl}-1-methyl-1H-imidazol-4-yl)-2-[1-methyl-5-(trifluoromethyl)-1H-pyrazol-3-yl]-2H-indazole], the IC50 in test [1] stood at 78 nM; in test [2], 11 nM.
Take `Cn1nc(-n2cc3c(-c4nc(-c5ccc(P(C)(C)=O)cc5OC(F)(F)F)n(C)c4C4CC4)cccc3n2)cc1C(F)(F)F` [Example 20, 4-{5-cyclopropyl-2-[4-(dimethylphosphoryl)-2-(trifluoromethoxy)phenyl]-1-methyl-1H-imidazol-4-yl}-2-[1-methyl-5-(trifluoromethyl)-1H-pyrazol-3-yl]-2H-indazole]: the IC50 is 180 nM in test [1] and 33 nM in test [2].
